This is an account of results in US6177438A, “Morphinan derivatives and pharmaceutical use thereof” (priority 1993, dated 2001).

Where a name gives a salt, the structure may show the parent alone. Read-outs that look alike come from different tables or passages of the source.

A short description of assay [1]: Diuretic action (urine output for 5 hours after physiological saline loading in rats). In kind it is in vivo, male Wistar rats. The conditions noted are these: for ED (200% urine output) / ED (500% urine output): Rattus norvegicus, sc, 5 hours after saline 20 ml/kg p.o.; for ED (200% urine output): dose giving urine output of 200 (non-dosed group = 100); for ED (500% urine output): dose giving urine output of 500 (non-dosed group = 100). How it is done: 7-8 week old male Wistar rats were used in this test after prohibiting from drinking water for 1 hour before the start of testing. After discharging any urine accumulated in the bladder by gently stimulating the lower abdomens of the animals, the drug was administered subcutaneously. After 30 minutes, the animals were then forcibly given 20 ml/kg of physiological saline orally. The animals were placed in metabolic cages immediately after administration of the drug (2 animals/cage) and urine output for 5 hours after loading with physiological saline was measured. Drug efficacy was expressed in the form of those doses resulting in urine outputs of 200 and 500, respectively, when the urine output of a non-dosed group was taken to be 100. Those doses were expressed as the ED200 and ED500 values, respectively.

The subject of assay [2] is acetic acid-induced writhing in ddy mice. In words: animal or person. In kind it is in vivo, 5 week old ddy mice. The conditions noted are these: for ED50: s.c. 15 minutes before acetic acid. How it is done:
5 week old ddy mice were used in this test. After intraperitoneal administration of 0.1 ml of 0.6% aqueous acetic acid per 10 g of body weight, the number of writhing reactions that occurred in 10 minutes starting 10 minutes after administration was evaluated for the indicator. The test drug was administered subcutaneously into the backs of the animals 15 minutes before administration of acetic acid.

The next assay concerns the target T1, κ receptor (Mus musculus, UniProt P33534).
T1 construct: from tissue; host or cells: mouse (male ddy) vas deferens
In words: Opioid activity test using an extracted mouse vas deferens preparation, Ke with norBNI. Further details: species or system male ddy mouse. The note with it: for receptor selectivity of agonist (κ): in words; for Ke, norBNI: κ, norBNI added. As to the method:
(§1) A male ddy mouse was used in this test. The vas deferens extracted from the animal was suspended in a Magnus tube filled with Krebes-Henseleit solution (NaCl 118 mM; KCl 4.7 mM; CaCl2 2.5 mM; KH2 PO4 1.1 mM; NaHCO3 25 mM; Glucose 11 mM) warmed to 37° C. and ventilated with 5% carbon dioxide and 95% oxygen. Electrical stimulus was performed at 0.1 Hz for 5.0 ms by means of ring-shaped platinum electrodes located above and below. Tissue contractions were recorded on a polygraph using an isometric transducer.
(§2) After adequately washing with nutrient solution and the contraction reaction stabilized, the μ agonist, naloxone, the δ agonist, NTI, or the κ agonist, norBNI, was added after which the test compound was again cumulatively added after roughly 20 minutes. The Ke value was calculated using the following calculation formula from the difference in the efficacies of both agonists.
Ke=[Conc. of added agonist]/(IC50 ratio-1)
IC50 ratio=IC50 in the presence of agonist/IC50 in the absence of agonist

Assay [3] has as its system extracted mouse vas deferens preparation. Briefly: Opioid activity test using an extracted mouse vas deferens preparation (suppression of electrically induced contractions). Further details: species or system male ddy mouse. The conditions noted are these: electrical stimulus 0.1 Hz, 37° C. As to the method: as §1, §2
Setting [4] is: Mus musculus, sc, read-out: ED50.

T1 sequence (P33534 whole entry): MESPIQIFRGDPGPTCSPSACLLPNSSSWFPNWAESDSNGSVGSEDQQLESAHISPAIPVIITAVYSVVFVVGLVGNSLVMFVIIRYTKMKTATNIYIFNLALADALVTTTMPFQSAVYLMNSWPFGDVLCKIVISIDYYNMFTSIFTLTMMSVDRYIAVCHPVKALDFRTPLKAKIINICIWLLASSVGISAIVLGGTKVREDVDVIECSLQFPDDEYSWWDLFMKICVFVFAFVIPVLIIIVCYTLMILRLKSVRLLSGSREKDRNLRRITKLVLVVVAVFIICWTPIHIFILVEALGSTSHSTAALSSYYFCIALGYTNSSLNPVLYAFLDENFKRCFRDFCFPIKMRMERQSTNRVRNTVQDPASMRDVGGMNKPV

In turn, `CN(C(=O)Cc1cccc(F)c1)[C@H]1CC[C@@]2(O)[C@H]3Cc4ccc(O)c5c4[C@@]2(CCN3CC2CC2)[C@H]1O5` [Compound 37, 17-cyclopropylmethyl-3,14β-dihydroxy-4,5α-epoxy-6α-(N-methyl-3-fluorophenylacetamido)morphinan.cndot.hydrochloride] came in with an ED (200% urine output) in assay [1] of 0.365 mg/kg. Besides, the ED50 (commonly the dose that gives a 50% effect, or the effect in half of the subjects) in assay [2] (setting [4]) turned out to be 0.0041 mg/kg.
For the compound `CCCCCCC(=O)N(C)[C@H]1CC[C@@]2(O)[C@H]3Cc4ccc(O)c5c4[C@@]2(CCN3CC2CC2)[C@H]1O5` [Compound 46, 17-cyclopropylmethyl-3,14β-dihydroxy-4,5α-epoxy-6α-(N-methylheptanamido)morphinan.cndot.hydrochloride], at κ receptor, the “receptor selectivity of agonist (κ)” value was “selective agonists for κ receptors” and the “Ke, norBNI” value was 0.440 nM. For the same compound, half-maximal inhibition in assay [3] (IC50) was put at 1.05 nM. In addition, in assay [2] (setting [4]), the ED50 was 0.013 mg/kg.
In assay [1], `CN(C(=O)/C=C/C1CCCCC1)[C@H]1CC[C@@]2(O)[C@H]3Cc4ccc(O)c5c4[C@@]2(CCN3CC2CC2)[C@H]1O5` [Compound 50, 17-cyclopropylmethyl-4,5α-epoxy-3,14β-dihydroxy-6α-(N-methyl-trans-3-cyclohexylacrylamido)morphinan.cndot.hydrochloride] showed an ED (200% urine output) of 0.0021 mg/kg and an ED (500% urine output) of 0.0325 mg/kg. The ED50 in assay [2] (setting [4]) turned out to be 0.011 mg/kg.
In assay [1], `CN(C(=O)CSc1ccccc1)[C@@H]1CC[C@@]2(O)[C@H]3Cc4ccc(O)c5c4[C@@]2(CCN3CC2CC2)[C@H]1O5` [Compound 65, 17-cyclopropylmethyl-3,14β-dihydroxy-4,5α-epoxy-6β-(N-methylthiophenoxyacetamido)morphinan.cndot.tartrate] showed an ED (200% urine output) of 0.119 mg/kg and an ED (500% urine output) of 5.31 mg/kg. Also, the ED50 in assay [2] (setting [4]) was 0.15 mg/kg.
Turning to `CN(C(=O)/C=C/c1ccco1)[C@@H]1CC[C@@]2(O)[C@H]3Cc4ccc(O)c5c4[C@@]2(CCN3CC2CC2)[C@H]1O5` [Compound 70, 17-cyclopropylmethyl-3,14β-dihydroxy-4,5α-epoxy-6β-[N-methyl-trans-3-(2-furyl)acrylamido]morphinan.cndot.hydrochloride], on κ receptor, the “receptor selectivity of agonist (κ)” value is “selective agonists for κ receptors” and the “Ke, norBNI” value turned out to be 0.198 nM. In addition, inhibition in assay [3] was half-maximal at 0.545 nM (IC50). Also, the ED50 in assay [2] (setting [4]) amounted to 0.0016 mg/kg.
In assay [1], `CN(C(=O)Cc1cccc([N+](=O)[O-])c1)[C@H]1CC[C@@]2(O)[C@H]3Cc4ccc(O)c5c4[C@@]2(CCN3CC2CC2)[C@H]1O5` [Compound 83, 17-Cyclopropylmethyl-3,14β-dihydroxy-4,5α-epoxy-6α-(N-methyl-3-nitrophenylacetamido)morphinan.cndot.hydrochloride] gave an ED (200% urine output) of 0.0261 mg/kg and an ED (500% urine output) of 2.99 mg/kg. Besides, the ED50 in assay [2] (setting [4]) is 0.008 mg/kg.
For the compound `CN(C(=O)/C=C/c1ccc(Cl)c(Cl)c1)[C@H]1CC[C@@]2(O)[C@H]3Cc4ccc(O)c5c4[C@@]2(CCN3CC2CC2)[C@H]1O5` [Compound 86, 17-cyclopropylmethyl-3,14β-dihydroxy-4,5α-epoxy-6α-(N-methyl-3,4-dichlorocinnamamido)morphinan.cndot.hydrochloride], in assay [1], the ED (200% urine output) was 0.0057 mg/kg and the ED (500% urine output) worked out at 0.229 mg/kg. Besides, in assay [2] (setting [4]), the ED50 amounted to 0.0347 mg/kg.
In the case of `CCC/C=C/C(=O)N(C)[C@H]1CC[C@@]2(O)[C@H]3Cc4ccc(O)c5c4[C@@]2(CCN3CC2CC2)[C@H]1O5` [Compound 95, 17-cyclopropylmethyl-3,14β-dihydroxy-4,5α-epoxy-6α-(N-methyl-trans-2-hexenamido)morphinan.cndot.tartrate], in assay [1], the ED (200% urine output) was 0.0028 mg/kg and the ED (500% urine output) amounted to 0.0968 mg/kg. Also, the median effective dose (ED50) in assay [2] (setting [4]) turned out to be 0.0081 mg/kg.
As for `CN(C(=O)CC(=O)c1ccccc1)[C@H]1CC[C@@]2(O)[C@H]3Cc4ccc(O)c5c4[C@@]2(CCN3CC2CC2)[C@H]1O5` [Compound 98, 17-cyclopropylmethyl-3,14β-dihydroxy-4,5α-epoxy-6α-(N-methylbenzoylacetamido)morphinan.cndot.tartrate], at κ receptor, the “receptor selectivity of agonist (κ)” value was “selective agonists for κ receptors” and the “Ke, norBNI” value turned out to be 1.35 nM. In addition, in assay [1], the ED (200% urine output) worked out at 0.0065 mg/kg and the ED (500% urine output) was 0.206 mg/kg. For the same compound, the IC50 (as a rule, the concentration that gives 50% inhibition) in assay [3] was found to be 1.3 nM. Also, the ED50 in assay [2] was determined as 0.0068 mg/kg.
In assay [1], `CN(C(=O)Cc1ccc(F)c(F)c1)[C@H]1CC[C@@]2(O)[C@H]3Cc4ccc(O)c5c4[C@@]2(CCN3CC2CC2)[C@H]1O5` [Compound 105, 17-cyclopropylmethyl-3,14β-dihydroxy-4,5α-epoxy-6α-(N-methyl-3,4-difluorophenylacetamido)morphinan.cndot.hydrochloride] gave an ED (200% urine output) of 0.019 mg/kg and an ED (500% urine output) of 3.3 mg/kg. The ED50 in assay [2] (setting [4]) was found to be 0.098 mg/kg.
In the case of `CN(C(=O)Cc1csc2ccccc12)[C@H]1CC[C@@]2(O)[C@H]3Cc4ccc(O)c5c4[C@@]2(CCN3CC2CC2)[C@H]1O5` [Compound 107, 17-cyclopropylmethyl-3,14β-dihydroxy-4,5α-epoxy-6α-(N-methyl-3-benzo[b]thienylacetamido)morphinan.cndot.hydrochloride], in assay [1], the ED (200% urine output) is 0.0061 mg/kg and the ED (500% urine output) was found to be 0.2 mg/kg. The ED50 in assay [2] (setting [4]) was determined as 0.023 mg/kg.
With `CN(C(=O)/C=C/c1ccc(Br)cc1)[C@@H]1CC[C@@]2(O)[C@H]3Cc4ccc(O)c5c4[C@@]2(CCN3CC2CC2)[C@H]1O5` [Compound 156, 17-cyclopropylmethyl-3,14β-dihydroxy-4,5α-epoxy-6β-(N-methyl-4-bromocinnamamido)morphinan hydrobromide], on κ receptor, the “receptor selectivity of agonist (κ)” value was “selective agonists for κ receptors” and the “Ke, norBNI” value is recorded as 0.091 nM. In assay [1], this compound returned an ED (200% urine output) of 0.00545 mg/kg and an ED (500% urine output) of 0.355 mg/kg. In assay [2] (setting [4]), the ED50 turned out to be 0.0056 mg/kg.
Take `C/C=C/C=C/C(=O)N(C)[C@@H]1CC[C@@]2(O)[C@H]3Cc4ccc(O)c5c4[C@@]2(CCN3CC2CC2)[C@H]1O5` [Compound 178, 17-cyclopropylmethyl-3,14β-dihydroxy-4,5α-epoxy-6β-(N-methyl-trans,trans-2,4-hexadienoylamido)morphinan tartrate]: in assay [1], the ED (200% urine output) stood at 0.00094 mg/kg and the ED (500% urine output) amounted to 0.0045 mg/kg. Besides, in assay [1] (s.c., from ED200 values), the “Diuretic action (in words)” value was “extremely strong diuretic action”. Moreover, the ED50 in assay [2] (setting [4]) was 0.0016 mg/kg. Also, in assay [2] (s.c., in words), the analgesic activity entry is reported as “particularly strong analgesic activity”.
`COc1cccc(C#CC(=O)N(C)[C@H]2CC[C@@]3(O)[C@H]4Cc5ccc(O)c6c5[C@@]3(CCN4CC3CC3)[C@H]2O6)c1.O=C(O)C(O)C(O)C(=O)O` [Compound 184, 17-cyclopropylmethyl-3,14β-dihydroxy-4,5α-epoxy-6α-[N-methyl-3-(3-methoxyphenyl)propiolamido]morphinan tartrate]: in assay [1], the ED (200% urine output) came out at 0.00444 mg/kg and the ED (500% urine output) worked out at 0.0326 mg/kg. The ED50 in assay [2] (setting [4]) amounted to 0.0043 mg/kg.
